Source: ChEMBL document CHEMBL3045152, “Synthesis and antiviral activity of new 4-(phenylamino)/4-[(methylpyridin-2-yl)amino]-1-phenyl-1H-pyrazolo[3,4-b]pyridine-4-carboxylic acids derivatives” (Med Chem Res, 2007)

Key:
[1] = Cytotoxicity against Chlorocebus aethiops (African green monkey) Vero cells after 72 hr by MTT assay; assay type: cell-based; conditions: chlorocebus sabaeus
Mayaro virus = assay: Antiviral activity against Mayaro virus infected in Vero cells after 72 hr by plaque reduction assay; assay type: functional, organism-based
[2] = Selectivity index, ratio of CC50 for african green monkey Vero cells to EC50 for Vesicular stomatitis virus; assay type: toxicity, cell-based; conditions: read-out: Ratio CC50/EC50
[3] = Selectivity index, ratio of CC50 for african green monkey Vero cells to EC50 for Mayaro virus; assay type: toxicity, cell-based; conditions: read-out: Ratio CC50/EC50
[4] = system: Vesicular stomatitis virus; assay: Antiviral activity against Vesicular stomatitis virus infected Vero cells after 72 hr by plaque reduction assay; assay type: functional, organism-based
Human alphaherpesvirus 1 [5] = assay: Antiviral activity against Human herpesvirus 1 at 50 uM by end point titration assay; assay type: functional
[6] = Selectivity index, ratio of CC50 for african green monkey Vero cells to EC50 for Herpes simplex virus 1; assay type: toxicity, cell-based; conditions: read-out: Ratio CC50/EC50
Human alphaherpesvirus 1 [7] = assay: Antiviral activity against Human herpesvirus 1 infected in Vero cells after 72 hr by plaque reduction assay; assay type: functional, organism-based; conditions: Human alphaherpesvirus 1, Vero
Human alphaherpesvirus 1 [8] = assay: Antiviral activity against Human herpesvirus 1 at 10 uM by end point titration assay; assay type: functional

O=C(O)c1cnc2c(cnn2-c2ccccc2)c1Nc1cccc(Cl)c1
CC50 at 72 h [1]: 37.4 µM | EC50 (Mayaro virus): 520 nM | selectivity ratio [2]: 37 | selectivity ratio [3]: 71 | EC50 [4]: 1000 nM | inhibition at 50 µM (Human alphaherpesvirus 1 [5]): 68%

CCOC(=O)c1cnc2c(cnn2-c2ccccc2)c1Nc1cccc(Br)c1
inhibition at 50 µM (Human alphaherpesvirus 1 [5]): 70%

CCOC(=O)c1cnc2c(cnn2-c2ccccc2)c1Nc1ccc(C)cn1
inhibition at 50 µM (Human alphaherpesvirus 1 [5]): 90%

Cc1cccc(Nc2c(C(=O)O)cnc3c2cnn3-c2ccccc2)n1
inhibition at 50 µM (Human alphaherpesvirus 1 [5]): 21%

CCOC(=O)c1cnc2c(cnn2-c2ccccc2)c1Nc1cccc(F)c1
inhibition at 50 µM (Human alphaherpesvirus 1 [5]): 0%

CCOC(=O)c1cnc2c(cnn2-c2ccccc2)c1Nc1ccc(OC)cc1
inhibition at 50 µM (Human alphaherpesvirus 1 [5]): 75.5%

CCOC(=O)c1cnc2c(cnn2-c2ccccc2)c1Nc1cccc([N+](=O)[O-])c1
CC50 at 72 h [1]: 1000 µM | selectivity ratio [6]: 141 | EC50 (Human alphaherpesvirus 1 [7]): 6.8 µM | inhibition at 50 µM (Human alphaherpesvirus 1 [5]): 90%

CCOC(=O)c1cnc2c(cnn2-c2ccccc2)c1Nc1cc(C)ccn1
inhibition at 50 µM (Human alphaherpesvirus 1 [5]): 60%

COc1ccc(Nc2c(C(=O)O)cnc3c2cnn3-c2ccccc2)cc1
inhibition at 50 µM (Human alphaherpesvirus 1 [5]): 80.6%

CCOC(=O)c1cnc2c(cnn2-c2ccccc2)c1Nc1ccc(Cl)cc1
inhibition at 50 µM (Human alphaherpesvirus 1 [5]): 92%

CCOC(=O)c1cnc2c(cnn2-c2ccccc2)c1Nc1ccc(C)cc1
inhibition at 50 µM (Human alphaherpesvirus 1 [5]): 69.2%

O=C(O)c1cnc2c(cnn2-c2ccccc2)c1Nc1cccc(Br)c1
CC50 at 72 h [1]: 600 µM | selectivity ratio [6]: 272 | EC50 (Human alphaherpesvirus 1 [7]): 2.2 µM | inhibition at 50 µM (Human alphaherpesvirus 1 [5]): 84%

O=C(O)c1cnc2c(cnn2-c2ccccc2)c1Nc1cccc(F)c1
inhibition at 50 µM (Human alphaherpesvirus 1 [5]): 68%

CCOC(=O)c1cnc2c(cnn2-c2ccccc2)c1Nc1cccc(C)c1
inhibition at 50 µM (Human alphaherpesvirus 1 [5]): 90%

Nc1nc2c(ncn2COCCO)c(=O)[nH]1 [ACYCLOVIR]
CC50 at 72 h [1]: 960 µM | inhibition at 10 µM (Human alphaherpesvirus 1 [8]): 96% | selectivity ratio [6]: 880 | selectivity ratio [3]: 880

O=C(O)c1cnc2c(cnn2-c2ccccc2)c1Nc1ccc(Cl)cc1
inhibition at 50 µM (Human alphaherpesvirus 1 [5]): 68%

COc1cccc(Nc2c(C(=O)O)cnc3c2cnn3-c2ccccc2)c1
inhibition at 50 µM (Human alphaherpesvirus 1 [5]): 75.5%

CCOC(=O)c1cnc2c(cnn2-c2ccccc2)c1Nc1ccc([N+](=O)[O-])cc1
inhibition at 50 µM (Human alphaherpesvirus 1 [5]): 0%

Cc1cccc(Nc2c(C(=O)O)cnc3c2cnn3-c2ccccc2)c1
inhibition at 50 µM (Human alphaherpesvirus 1 [5]): 38.5%

CCOC(=O)c1cnc2c(cnn2-c2ccccc2)c1Nc1ccccc1
inhibition at 50 µM (Human alphaherpesvirus 1 [5]): 90%

CCOC(=O)c1cnc2c(cnn2-c2ccccc2)c1Nc1cccc(C)n1
inhibition at 50 µM (Human alphaherpesvirus 1 [5]): 90%

O=C(O)c1cnc2c(cnn2-c2ccccc2)c1Nc1cccc([N+](=O)[O-])c1
inhibition at 50 µM (Human alphaherpesvirus 1 [5]): 20.6%

Cc1ccc(Nc2c(C(=O)O)cnc3c2cnn3-c2ccccc2)nc1
inhibition at 50 µM (Human alphaherpesvirus 1 [5]): 60%

Cc1ccc(Nc2c(C(=O)O)cnc3c2cnn3-c2ccccc2)cc1
inhibition at 50 µM (Human alphaherpesvirus 1 [5]): 58.4%

CCOC(=O)c1cnc2c(cnn2-c2ccccc2)c1Nc1cccc(OC)c1
inhibition at 50 µM (Human alphaherpesvirus 1 [5]): 98%

O=C(O)c1cnc2c(cnn2-c2ccccc2)c1Nc1ccc([N+](=O)[O-])cc1
inhibition at 50 µM (Human alphaherpesvirus 1 [5]): 80%

Cc1ccnc(Nc2c(C(=O)O)cnc3c2cnn3-c2ccccc2)c1
inhibition at 50 µM (Human alphaherpesvirus 1 [5]): 75%

O=C(O)c1cnc2c(cnn2-c2ccccc2)c1Nc1ccccc1
CC50 at 72 h [1]: 135 µM | EC50 (Mayaro virus): 4800 nM | selectivity ratio [2]: 54 | selectivity ratio [3]: 28 | EC50 [4]: 2500 nM | inhibition at 50 µM (Human alphaherpesvirus 1 [5]): 0%

CCOC(=O)c1cnc2c(cnn2-c2ccccc2)c1Nc1cccc(Cl)c1
inhibition at 50 µM (Human alphaherpesvirus 1 [5]): 60%

CCOC(=O)c1cnc2c(cnn2-c2ccccc2)c1Nc1ccc(Br)cc1
inhibition at 50 µM (Human alphaherpesvirus 1 [5]): 75%

O=C(O)c1cnc2c(cnn2-c2ccccc2)c1Nc1ccc(Br)cc1
inhibition at 50 µM (Human alphaherpesvirus 1 [5]): 37%
